PubChem BioAssay AID228 (DTP/NCI, 2004)
Several values for one entry are separate records, joined by “and”; a condition that tells them apart may be missing. Equal entries are not always repeated. Results filed as inconclusive are left out.

Tested on: BDF1 mice, Friend leukemia sc, tumor weight T/C
Assay: NCI In Vivo Anticancer Drug Screen. Data for tumor model Friend Virus Leukemia (Solid) (subcutaneous) in B6D2F1 (BDF1) mice
Conditions: endpoint: mean tumor weight, schedule: Q01DX011 (ip), vehicle: carboxymethylcellulose (CMC), higher = larger tumour
Method: The antitumor activity of compounds was measured in mice bearing transplantable tumors. Survival or tumor size were measured and the results are expressed as the measurement made in the treated group (T) divided by the measurement made in the vehicle treated control group (C). The tumor model used in this assay is Friend Virus Leukemia (Solid) (subcutaneous) in B6D2F1 (BDF1) mice

Cn1c(=O)c2[nH]c(CCCc3nc4c([nH]3)c(=O)n(C)c(=O)n4C)nc2n(C)c1=O
T/C (dose: 20.0 mg/kg/injection): 101 % of control | T/C (dose: 40.0 mg/kg/injection): 94 % of control | T/C (dose: 80.0 mg/kg/injection): 44 % of control

O=[N+]([O-])c1ccc(O)c([N+](=O)[O-])c1
T/C (dose: 3.87 mg/kg/injection): 101 % of control | T/C (dose: 6.75 mg/kg/injection): 102 % of control | T/C (dose: 13.5 mg/kg/injection): 103 % of control | T/C (dose: 27.0 mg/kg/injection): 123 % of control

Cn1c(=O)c2[nH]cnc2n(C)c1=O
T/C (dose: 14.5 mg/kg/injection): 97 % of control | T/C (dose: 29.0 mg/kg/injection): 93 % of control | T/C (dose: 58.0 mg/kg/injection): 82 % of control | T/C (dose: 116.0 mg/kg/injection): 66 % of control

CCN(CC)CCNc1ccc(C)c2sc3ccccc3c(=O)c12
T/C (dose: 1.0 mg/kg/injection): 184 % of control | T/C (dose: 6.0 mg/kg/injection): 199 % of control | T/C (dose: 6.25 mg/kg/injection): 37 % of control | T/C (dose: 8.0 mg/kg/injection): 174 % of control | T/C (dose: 8.1 mg/kg/injection): 199 % of control | T/C (dose: 12.5 mg/kg/injection): 35 % of control | T/C (dose: 16.0 mg/kg/injection): 274 % of control | T/C (dose: 16.2 mg/kg/injection): 179 % of control | T/C (dose: 26.0 mg/kg/injection): 111 % of control | T/C (dose: 32.0 mg/kg/injection): 66 % of control | T/C (dose: 33.0 mg/kg/injection): 69 % of control | T/C (dose: 43.0 mg/kg/injection): 72 % of control | T/C (dose: 50.0 mg/kg/injection): 31 % of control and 32 % of control | T/C (dose: 75.0 mg/kg/injection): 3 % of control and 7 % of control

O=c1[nH]cnc2n[nH]nc12
T/C (dose: 62.5 mg/kg/injection): 71 % of control | T/C (dose: 125.0 mg/kg/injection): 55 % of control | T/C (dose: 250.0 mg/kg/injection): 31 % of control and 36 % of control | T/C (dose: 500.0 mg/kg/injection): 11 % of control and 17 % of control

NCCCC(NC(=O)CCCCCCCCN=C(N)N)C(O)CCCCCCCCN=C(N)N (stereo not drawn)
T/C (dose: 0.38 mg/kg/injection): 102 % of control | T/C (dose: 0.75 mg/kg/injection): 82 % of control | T/C (dose: 1.5 mg/kg/injection): 92 % of control | T/C (dose: 3.0 mg/kg/injection): 96 % of control | T/C (dose: 6.0 mg/kg/injection): 79 % of control

CCOC(=O)NP(=O)(N1CC1)N1CC1
T/C (dose: 2.87 mg/kg/injection): 78 % of control | T/C (dose: 4.75 mg/kg/injection): 77 % of control | T/C (dose: 9.5 mg/kg/injection): 36 % of control | T/C (dose: 19.0 mg/kg/injection): 5 % of control
